In ChEMBL document CHEMBL1140819, “Protected aminooxyprolines for expedited library synthesis: application to Tsg101-directed proline-oxime containing peptides” (Bioorg Med Chem Lett, 2008):
*1 amine or outer side, *2 acyl side, *3 side chain or, on linkers, in order; H or OH if unused. Where a SMILES comes first, the peptide text is derived from it. [ ]: non-standard residue; d: D form. The star is where a group is joined. ξ: configuration not given here. Fluorescein(5-NHCS) = O=C1OC2(c3ccc(O)cc3Oc3cc(O)ccc32)c2cc(NC(=S)*)ccc21; X19 = O=C([C@@H]1C[C@@H](O/N=C\c2ccc([N+](=O)[O-])cc2)CN1[*:1])[*:2]; X34 = O=C([C@@H]1[C@@H](O/N=C\c2ccc([N+](=O)[O-])o2)CCN1[*:1])[*:2]; X10 = O=C([C@@H]1C[C@H](O/N=C\c2c(F)c(F)c(F)c(F)c2F)CN1[*:1])[*:2]; X37 = O=C([C@@H]1C[C@@H](O/N=C\c2ccc(CO)o2)CN1[*:1])[*:2]; X26 = O=C([C@@H]1C[C@@H](O/N=C\CCc2ccccc2)CN1[*:1])[*:2]; X42 = O=C([C@@H]1[C@@H](O/N=C\CCc2ccccc2)CCN1[*:1])[*:2]; X46 = O=C([C@@H]1C[C@H](O/N=C\CCc2ccccc2)CN1[*:1])[*:2]; X4 = O=C([C@@H]1[C@@H](O/N=C\c2ccncc2)CCN1[*:1])[*:2]; X41 = CCCCC/C=N\O[C@@H]1C[C@@H](C(=O)[*:2])N([*:1])C1; X35 = O=C([C@@H]1C[C@H](O/N=C\c2ccoc2)CN1[*:1])[*:2]; ξPip = O=C(O)C1CCCCN1; Ava = NCCCCC(=O)O

molecular target: T1, Tumor susceptibility gene 101 protein (Homo sapiens, UniProt Q99816); assay: Binding affinity to Tsg101
T1 sequence (Q99816 whole entry): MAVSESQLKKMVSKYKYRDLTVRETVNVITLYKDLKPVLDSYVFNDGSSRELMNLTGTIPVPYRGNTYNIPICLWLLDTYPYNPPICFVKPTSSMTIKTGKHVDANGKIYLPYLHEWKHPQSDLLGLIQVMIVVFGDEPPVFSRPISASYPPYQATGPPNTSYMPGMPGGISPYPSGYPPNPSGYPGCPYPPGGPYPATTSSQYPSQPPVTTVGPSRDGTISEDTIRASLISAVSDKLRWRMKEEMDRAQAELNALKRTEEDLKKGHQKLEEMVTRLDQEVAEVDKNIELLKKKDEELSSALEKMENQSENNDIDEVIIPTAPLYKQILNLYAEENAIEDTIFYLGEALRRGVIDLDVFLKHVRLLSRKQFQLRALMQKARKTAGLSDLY

Compound | IC50
C[C@H](NC(=O)[C@@H](NC(=O)[C@@H]1CCCN1C(=O)[C@H](CCC(=O)O)NC(=O)[C@@H]1CCCN1C(=O)CCCCNC(=S)Nc1ccc2c(c1)C1(OC2=O)c2ccc(O)cc2Oc2cc(O)ccc21)[C@@H](C)O)C(=O)N1CCCCC1C(=O)N1C[C@H](O/N=C\CCc2ccccc2)C[C@H]1C(=O)N[C@@H](CCC(=O)O)C(=O)N[C@@H](CCC(=O)O)C(N)=O (stereo not given in full) ({Fluorescein(5-NHCS)-Ava}-PEPTA[ξPip][X26]EE-NH2) | 26 µM
C[C@H](NC(=O)[C@@H](NC(=O)[C@@H]1CCCN1C(=O)[C@H](CCC(=O)O)NC(=O)[C@@H]1CCCN1C(=O)CCCCNC(=S)Nc1ccc2c(c1)C1(OC2=O)c2ccc(O)cc2Oc2cc(O)ccc21)[C@@H](C)O)C(=O)N1CCCCC1C(=O)N1CC[C@H](O/N=C\CCc2ccccc2)[C@H]1C(=O)N[C@@H](CCC(=O)O)C(=O)N[C@@H](CCC(=O)O)C(N)=O (stereo not given in full) ({Fluorescein(5-NHCS)-Ava}-PEPTA[ξPip][X42]EE-NH2) | 20 µM
C[C@H](NC(=O)[C@@H](NC(=O)[C@@H]1CCCN1C(=O)[C@H](CCC(=O)O)NC(=O)[C@@H]1CCCN1C(=O)CCCCNC(=S)Nc1ccc2c(c1)C1(OC2=O)c2ccc(O)cc2Oc2cc(O)ccc21)[C@@H](C)O)C(=O)N1CCCCC1C(=O)N1CC[C@H](O/N=C\c2ccncc2)[C@H]1C(=O)N[C@@H](CCC(=O)O)C(=O)N[C@@H](CCC(=O)O)C(N)=O (stereo not given in full) ({Fluorescein(5-NHCS)-Ava}-PEPTA[ξPip][X4]EE-NH2) | 22 µM
C[C@H](NC(=O)[C@@H](NC(=O)[C@@H]1CCCN1C(=O)[C@H](CCC(=O)O)NC(=O)[C@@H]1CCCN1C(=O)CCCCNC(=S)Nc1ccc2c(c1)C1(OC2=O)c2ccc(O)cc2Oc2cc(O)ccc21)[C@@H](C)O)C(=O)N1CCCCC1C(=O)N1C[C@H](O/N=C\c2ccc([N+](=O)[O-])cc2)C[C@H]1C(=O)N[C@@H](CCC(=O)O)C(=O)N[C@@H](CCC(=O)O)C(N)=O (stereo not given in full) ({Fluorescein(5-NHCS)-Ava}-PEPTA[ξPip][X19]EE-NH2) | 21 µM
C[C@H](NC(=O)[C@@H](NC(=O)[C@@H]1CCCN1C(=O)[C@H](CCC(=O)O)NC(=O)[C@@H]1CCCN1C(=O)CCCCNC(=S)Nc1ccc2c(c1)C1(OC2=O)c2ccc(O)cc2Oc2cc(O)ccc21)[C@@H](C)O)C(=O)N1CCCCC1C(=O)N1CC[C@H](O/N=C\c2ccc([N+](=O)[O-])o2)[C@H]1C(=O)N[C@@H](CCC(=O)O)C(=O)N[C@@H](CCC(=O)O)C(N)=O (stereo not given in full) ({Fluorescein(5-NHCS)-Ava}-PEPTA[ξPip][X34]EE-NH2) | 18 µM

Further lines, results first:

IC50 | Compound
41 µM | CCCCC/C=N\O[C@@H]1C[C@@H](C(=O)N[C@@H](CCC(=O)O)C(=O)N[C@@H](CCC(=O)O)C(N)=O)N(C(=O)C2CCCCN2C(=O)[C@H](C)NC(=O)[C@@H](NC(=O)[C@@H]2CCCN2C(=O)[C@H](CCC(=O)O)NC(=O)[C@@H]2CCCN2C(=O)CCCCNC(=S)Nc2ccc3c(c2)C2(OC3=O)c3ccc(O)cc3Oc3cc(O)ccc32)[C@@H](C)O)C1 (stereo not given in full) ({Fluorescein(5-NHCS)-Ava}-PEPTA[ξPip][X41]EE-NH2)
48 µM | C[C@H](NC(=O)[C@@H](NC(=O)[C@@H]1CCCN1C(=O)[C@H](CCC(=O)O)NC(=O)[C@@H]1CCCN1C(=O)CCCCNC(=S)Nc1ccc2c(c1)C1(OC2=O)c2ccc(O)cc2Oc2cc(O)ccc21)[C@@H](C)O)C(=O)N1CCCCC1C(=O)N1C[C@@H](O/N=C\c2ccoc2)C[C@H]1C(=O)N[C@@H](CCC(=O)O)C(=O)N[C@@H](CCC(=O)O)C(N)=O (stereo not given in full) ({Fluorescein(5-NHCS)-Ava}-PEPTA[ξPip][X35]EE-NH2)
26 µM | C[C@H](NC(=O)[C@@H](NC(=O)[C@@H]1CCCN1C(=O)[C@H](CCC(=O)O)NC(=O)[C@@H]1CCCN1C(=O)CCCCNC(=S)Nc1ccc2c(c1)C1(OC2=O)c2ccc(O)cc2Oc2cc(O)ccc21)[C@@H](C)O)C(=O)N1CCCCC1C(=O)N1C[C@H](O/N=C\c2ccc(CO)o2)C[C@H]1C(=O)N[C@@H](CCC(=O)O)C(=O)N[C@@H](CCC(=O)O)C(N)=O (stereo not given in full) ({Fluorescein(5-NHCS)-Ava}-PEPTA[ξPip][X37]EE-NH2)
139 µM | C[C@H](NC(=O)[C@@H](NC(=O)[C@@H]1CCCN1C(=O)[C@H](CCC(=O)O)NC(=O)[C@@H]1CCCN1C(=O)CCCCNC(=S)Nc1ccc2c(c1)C1(OC2=O)c2ccc(O)cc2Oc2cc(O)ccc21)[C@@H](C)O)C(=O)N1CCCCC1C(=O)N1C[C@@H](O/N=C\c2c(F)c(F)c(F)c(F)c2F)C[C@H]1C(=O)N[C@@H](CCC(=O)O)C(=O)N[C@@H](CCC(=O)O)C(N)=O (stereo not given in full) ({Fluorescein(5-NHCS)-Ava}-PEPTA[ξPip][X10]EE-NH2)
83 µM | C[C@H](NC(=O)[C@@H](NC(=O)[C@@H]1CCCN1C(=O)[C@H](CCC(=O)O)NC(=O)[C@@H]1CCCN1C(=O)CCCCNC(=S)Nc1ccc2c(c1)C1(OC2=O)c2ccc(O)cc2Oc2cc(O)ccc21)[C@@H](C)O)C(=O)N1CCCCC1C(=O)N1C[C@@H](O/N=C\CCc2ccccc2)C[C@H]1C(=O)N[C@@H](CCC(=O)O)C(=O)N[C@@H](CCC(=O)O)C(N)=O (stereo not given in full) ({Fluorescein(5-NHCS)-Ava}-PEPTA[ξPip][X46]EE-NH2)
